One data set deals with skin fibroblasts. The data set can be described thus: Cytotoxicity, LDH assay. To be noted: concentrations of ADP355 used for these experiments (10 μM). In kind it is cell-based, human. An excerpt:
(§1) Primary cultures of healthy adult and SSc skin fibroblasts, and neonatal fibroblasts, were established by explantation. The clinical features of the subjects are shown in Supplementary Table 5. Protocols for skin biopsies were approved by the Institutional Review Board at Northwestern University. Embryonic fibroblasts from AMP protein kinase (AMPK)^−/− mice and wild-type mice were a gift from Yu-Ying He (University of Chicago). When cultures reached confluence, serum-free media supplemented with 0.1% bovine serum albumin (BSA) were added prior to TGF-β2 (Peprotech, Rocky Hill, NJ) or/and ADP355 (10 μM)[37], and incubation continued for a further 24 h. Cytotoxicity was evaluated using LDH assays (Biovision).

A further data set has as its system SSc skin fibroblasts. In words: Constitutive fibrotic gene expression in SSc fibroblasts. In kind it is cell-based, human. To be noted: unstimulated SSc fibroblasts (n = 5), ADP355 24 h, αSMA and type I collagen immunofluorescence. How it is done:
Normal skin fibroblasts (10,000 cells/well) seeded in 8-well Lab-Tek II chamber glass slides (Nalge Nunc International, Naperville, IL) were incubated in media with indicated reagents. At the end of the experiments, cells were fixed, permeabilized, and incubated with primary antibodies to α-SMA (1:500, Sigma), phospho-FAK (pY397; 1:50, Abcam), vinculin (1:200, Abcam), Alexa Fluor 488 phalloidin (1:200, Invitrogen) or Type I collagen (1:100, Southern Biotech), followed by appropriate secondary antibodies conjugated to Alexa Fluor (Invitrogen), and evaluated under a Nikon C1Si confocal microscope.
as §1

The test system of another data set is AMPK-null MEFs. The data set can be described thus: Anti-fibrotic activity in AMPK-null MEFs (qPCR). In kind it is cell-based. Conditions: mouse embryonic fibroblasts, ADP355 24 h.
Text: as §1
(§2) RNA was isolated from skin samples using RNAeasy Fibrous Tissue Mini kit (Qiagen, Valencia, CA), or from fibroblast cultures, using the RNeasy Plus mini kit (Qiagen), and processed for qPCR as described. mRNA levels were normalized to the levels of 18 S RNA or GAPDH, and the relative amounts were calculated using the 2^−ΔΔCt method.
A general note: In qPCR the cycle at which signal appears reflects the starting amount.

The subject of data set [1] is normal dermal fibroblasts. The data set can be described thus: Scratch assay of fibroblast migration. In kind it is cell-based, human. To be noted: widths after 48 h. On the procedure:
Figure 4 ADP355 inhibits fibrotic responses in normal and SSc skin fibroblasts. (a–d). Confluent cultures of normal dermal fibroblasts were preincubated with ADP355, followed by TGF-β2 for 24 h. (a) Total RNA was subjected to real-time qPCR. Results are mean ± SD of triplicate determinations. *p < 0.05, **p < 0.01. (b) Western blot of whole cell lysates. Representative results. Fold change in Type I collagen (Cgn I) levels relative to control is shown at bottom. (c) Fibroblasts were transiently transfected with [SBE]4-luc reporter plasmids, and cell lysates were assayed for their luciferase activities. Results are mean ± SD of triplicate determinations. **p < 0.001 (d) Scratch assays were performed and the widths determined after 48 h. Results are mean ± SEM of triplicate determinations at three randomly selected sites. (e) 3D human skin equivalents populated with normal fibroblasts were incubated in media with ADP355 and TGF-β2 for 6 days. RNA was isolated for qPCR. Results are mean ± SD of triplicate determinations *p < 0.05, **p < 0.001. (f) SSc skin fibroblasts (n = 5) incubated with ADP355 for 24 h were immunostained with antibodies to αSMA (green) or type I collagen (Cgn1, red), or stained with DAPI (blue). Left panels, representative immunofluorescence photomicrographs (original magnification × 400). Right panels, immunofluorescence intensity. […]

Data set [2] in a line: Tolerability of chronic treatment in mice. In kind it is in vivo, mouse. To be noted: 1 mg/kg/d i.p. for up to 28 days. An excerpt:
Bleomycin (BLM) or phosphate buffered saline (PBS) was given by daily subcutaneous (s.c.) injection for 14 consecutive days[55]. In some experiments, mice were given a single s.c. injection of adenovirus expressing constitutively-active TGF-ß1 (TGFß1^223/225 3x10^9 PFU/ml) or beta-galactosidase (5x10^9 PFU/ml)[56]. Peritoneal fibrosis was induced by i.p. injections of 0.1% chlorhexidine gluconate (CG; Wako Pure Chemical Industries, Osaka, Japan) dissolved in 15% ethanol/PBS given on alternate days for 21 days[35]. Synthetic peptides targeting AdipoR (ADP355 or ADP27)[37] or vehicle (PBS) at the indicated concentrations were administered by daily i.p. injection for 14 or 24 days. Each experimental group consisted of 4–8 mice, and experiments were repeated at least two times with consistent results. At the end of the experiments, mice were sacrificed and blood and tissue were collected for analysis.

Data set [3] has as its system normal dermal fibroblasts. In words: TGF-ß-induced fibrotic gene expression in skin fibroblasts (qPCR, Western blot). In kind it is cell-based, human.
Text: as §1, §2
At the end of the experiments, fibroblasts were harvested and whole cell lysates (100 μg) were subjected to Western-blot analysis[25] using antibodies for Type I collagen (Southern Biotech), α-SMA (Sigma), phospho-Smad2/3 (Cell-Signaling), phospho-FAK (pY397, Cell Signaling), total-FAK (Cell Signaling) or GAPDH (Zymed, San Francisco, CA). […]

Residues, ends and D or L forms follow the SMILES beside them.

With `CCC[C@H](NC(=O)[C@@H]1CCCN1C(=O)[C@@H](NC(=O)[C@H](N)CC(N)=O)[C@@H](C)CC)C(=O)N[C@@H](CC(C)C)C(=O)N[C@@H](Cc1ccc(O)cc1)C(=O)N[C@H](CO)C(=O)N[C@@H](Cc1ccccc1)C(=O)N[C@@H](C)C(=O)N[C@H](CO)C(N)=O` [ADP355, H-DAsn-Ile-Pro-Nva-Leu-Tyr-DSer-Phe-Ala-DSer-NH2] (HELM PEPTIDE1{[dN].I.P.[Nva].L.Y.[dS].F.A.[dS].[am]}$$$$V2.0), the cell viability result with skin fibroblasts is listed as “No effects on cell viability”. Also, the “constitutive fibrotic gene expression” value in the data set with SSc skin fibroblasts is given as “mitigated constitutive fibrotic gene expression”. In the data set with AMPK-null MEFs, the “anti-fibrotic activity in AMPK-null MEFs” value was “failed to exert anti-fibrotic activity”. Moreover, the “stimulation of fibroblast migration” value in data set [1] was “abrogated the stimulation of fibroblast migration”. The “tolerability of chronic treatment” value in data set [2] is “well tolerated, with no signs of toxicity”. In addition, the “inhibitory effects on fibrotic gene expression” value in data set [3] (adult skin fibroblasts, data not shown) is reported as “Comparable inhibitory effects”. Moreover, the “COL1A1, COL1A2, ASMA, and fibronectin (FN) gene expression induced by TGF-ß” value in data set [3] (neonatal skin fibroblasts, ADP355 10 μM preincubation then TGF-β2 24 h, qPCR and Western blot) is reported as “potent abrogation”.
